Paper PMC12102759 (Protein Science : A Publication of the Protein Society, 2025)
Where two headings read alike, the source gives them in different places.

System: G3BP1 NFT2
Type: binding, human
Settings: library DMS-CoV, bait G3BP1 NFT2, prey N, listed as aa = residue placed at this position, column sums to 1

APRITFGGPSDSTGSN R3N (APNITFGGPSDSTGSN)
DMS PSSM value, R (position 3) (peptide APRITFGGPSDSTGSN): 0.0002259

APRITFGGPSDSTGSN S12R (APRITFGGPSDRTGSN)
DMS PSSM value, S (position 12) (peptide APRITFGGPSDSTGSN): 0

APRITFGGPSDSTGSN T13Q (APRITFGGPSDSQGSN)
DMS PSSM value, T (position 13) (peptide APRITFGGPSDSTGSN): 0.01432

APRITFGGPSDSTGSN G14D (APRITFGGPSDSTDSN)
DMS PSSM value, G (position 14) (peptide APRITFGGPSDSTGSN): 0.0004838

RNAPRITFGGPSDSTG I6Y (RNAPRYTFGGPSDSTG)
DMS PSSM value, I (position 6) (peptide RNAPRITFGGPSDSTG): 0

RNAPRITFGGPSDSTG S12I (RNAPRITFGGPIDSTG)
DMS PSSM value, S (position 12) (peptide RNAPRITFGGPSDSTG): 0

APRITFGGPSDSTGSN S15G (APRITFGGPSDSTGGN)
DMS PSSM value, S (position 15) (peptide APRITFGGPSDSTGSN): 0.002342

RNAPRITFGGPSDSTG G10P (RNAPRITFGPPSDSTG)
DMS PSSM value, G (position 10) (peptide RNAPRITFGGPSDSTG): 0

APRITFGGPSDSTGSN R3P (APPITFGGPSDSTGSN)
DMS PSSM value, R (position 3) (peptide APRITFGGPSDSTGSN): 0.2686

RNAPRITFGGPSDSTG R5V (RNAPVITFGGPSDSTG)
DMS PSSM value, R (position 5) (peptide RNAPRITFGGPSDSTG): 0.006458

RNAPRITFGGPSDSTG P4A (RNAARITFGGPSDSTG)
DMS PSSM value, P (position 4) (peptide RNAPRITFGGPSDSTG): 0

RNAPRITFGGPSDSTG A3Q (RNQPRITFGGPSDSTG)
DMS PSSM value, A (position 3) (peptide RNAPRITFGGPSDSTG): 0

APRITFGGPSDSTGSN P2R (ARRITFGGPSDSTGSN)
DMS PSSM value, P (position 2) (peptide APRITFGGPSDSTGSN): 0

APRITFGGPSDSTGSN T5Y (APRIYFGGPSDSTGSN)
DMS PSSM value, T (position 5) (peptide APRITFGGPSDSTGSN): 0

RNAPRITFGGPSDSTG S12A (RNAPRITFGGPADSTG)
DMS PSSM value, S (position 12) (peptide RNAPRITFGGPSDSTG): 0.3916

RNAPRITFGGPSDSTG P4S (RNASRITFGGPSDSTG)
DMS PSSM value, P (position 4) (peptide RNAPRITFGGPSDSTG): 0

RNAPRITFGGPSDSTG P11D (RNAPRITFGGDSDSTG)
DMS PSSM value, P (position 11) (peptide RNAPRITFGGPSDSTG): 0

APRITFGGPSDSTGSN P9Q (APRITFGGQSDSTGSN)
DMS PSSM value, P (position 9) (peptide APRITFGGPSDSTGSN): 0

RNAPRITFGGPSDSTG D13G (RNAPRITFGGPSGSTG)
DMS PSSM value, D (position 13) (peptide RNAPRITFGGPSDSTG): 0

RNAPRITFGGPSDSTG T7G (RNAPRIGFGGPSDSTG)
DMS PSSM value, T (position 7) (peptide RNAPRITFGGPSDSTG): 0

APRITFGGPSDSTGSN F6L (APRITLGGPSDSTGSN)
DMS PSSM value, F (position 6) (peptide APRITFGGPSDSTGSN): 0.004454

APRITFGGPSDSTGSN A1W (WPRITFGGPSDSTGSN)
DMS PSSM value, A (position 1) (peptide APRITFGGPSDSTGSN): 0.0009046

APRITFGGPSDSTGSN S12T (APRITFGGPSDTTGSN)
DMS PSSM value, S (position 12) (peptide APRITFGGPSDSTGSN): 0.00392

APRITFGGPSDSTGSN F6R (APRITRGGPSDSTGSN)
DMS PSSM value, F (position 6) (peptide APRITFGGPSDSTGSN): 0

APRITFGGPSDSTGSN G8D (APRITFGDPSDSTGSN)
DMS PSSM value, G (position 8) (peptide APRITFGGPSDSTGSN): 0

APRITFGGPSDSTGSN A1R (RPRITFGGPSDSTGSN)
DMS PSSM value, A (position 1) (peptide APRITFGGPSDSTGSN): 0

APRITFGGPSDSTGSN R3M (APMITFGGPSDSTGSN)
DMS PSSM value, R (position 3) (peptide APRITFGGPSDSTGSN): 0.03758

RNAPRITFGGPSDSTG A3F (RNFPRITFGGPSDSTG)
DMS PSSM value, A (position 3) (peptide RNAPRITFGGPSDSTG): 0

RNAPRITFGGPSDSTG P11A (RNAPRITFGGASDSTG)
DMS PSSM value, P (position 11) (peptide RNAPRITFGGPSDSTG): 0

APRITFGGPSDSTGSN S10R (APRITFGGPRDSTGSN)
DMS PSSM value, S (position 10) (peptide APRITFGGPSDSTGSN): 0

RNAPRITFGGPSDSTG G10D (RNAPRITFGDPSDSTG)
DMS PSSM value, G (position 10) (peptide RNAPRITFGGPSDSTG): 0

APRITFGGPSDSTGSN S10H (APRITFGGPHDSTGSN)
DMS PSSM value, S (position 10) (peptide APRITFGGPSDSTGSN): 0

RNAPRITFGGPSDSTG S14W (RNAPRITFGGPSDWTG)
DMS PSSM value, S (position 14) (peptide RNAPRITFGGPSDSTG): 0

RNAPRITFGGPSDSTG T15P (RNAPRITFGGPSDSPG)
DMS PSSM value, T (position 15) (peptide RNAPRITFGGPSDSTG): 0

RNAPRITFGGPSDSTG T7D (RNAPRIDFGGPSDSTG)
DMS PSSM value, T (position 7) (peptide RNAPRITFGGPSDSTG): 0

APRITFGGPSDSTGSN I4T (APRTTFGGPSDSTGSN)
DMS PSSM value, I (position 4) (peptide APRITFGGPSDSTGSN): 0

APRITFGGPSDSTGSN S10P (APRITFGGPPDSTGSN)
DMS PSSM value, S (position 10) (peptide APRITFGGPSDSTGSN): 0.1036

APRITFGGPSDSTGSN G8S (APRITFGSPSDSTGSN)
DMS PSSM value, G (position 8) (peptide APRITFGGPSDSTGSN): 0.005734

APRITFGGPSDSTGSN T13D (APRITFGGPSDSDGSN)
DMS PSSM value, T (position 13) (peptide APRITFGGPSDSTGSN): 9.878e-5

APRITFGGPSDSTGSN I4V (APRVTFGGPSDSTGSN)
DMS PSSM value, I (position 4) (peptide APRITFGGPSDSTGSN): 0.03242

RNAPRITFGGPSDSTG T15E (RNAPRITFGGPSDSEG)
DMS PSSM value, T (position 15) (peptide RNAPRITFGGPSDSTG): 0

APRITFGGPSDSTGSN S12E (APRITFGGPSDETGSN)
DMS PSSM value, S (position 12) (peptide APRITFGGPSDSTGSN): 0.0009188

RNAPRITFGGPSDSTG N2A (RAAPRITFGGPSDSTG)
DMS PSSM value, N (position 2) (peptide RNAPRITFGGPSDSTG): 0

APRITFGGPSDSTGSN G14Q (APRITFGGPSDSTQSN)
DMS PSSM value, G (position 14) (peptide APRITFGGPSDSTGSN): 0.3116

APRITFGGPSDSTGSN G14L (APRITFGGPSDSTLSN)
DMS PSSM value, G (position 14) (peptide APRITFGGPSDSTGSN): 0.0229

RNAPRITFGGPSDSTG R5Y (RNAPYITFGGPSDSTG)
DMS PSSM value, R (position 5) (peptide RNAPRITFGGPSDSTG): 0.03289

RNAPRITFGGPSDSTG T7V (RNAPRIVFGGPSDSTG)
DMS PSSM value, T (position 7) (peptide RNAPRITFGGPSDSTG): 0

RNAPRITFGGPSDSTG G16K (RNAPRITFGGPSDSTK)
DMS PSSM value, G (position 16) (peptide RNAPRITFGGPSDSTG): 0

RNAPRITFGGPSDSTG P11R (RNAPRITFGGRSDSTG)
DMS PSSM value, P (position 11) (peptide RNAPRITFGGPSDSTG): 0

RNAPRITFGGPSDSTG P11L (RNAPRITFGGLSDSTG)
DMS PSSM value, P (position 11) (peptide RNAPRITFGGPSDSTG): 0

RNAPRITFGGPSDSTG S14D (RNAPRITFGGPSDDTG)
DMS PSSM value, S (position 14) (peptide RNAPRITFGGPSDSTG): 0

APRITFGGPSDSTGSN G7W (APRITFWGPSDSTGSN)
DMS PSSM value, G (position 7) (peptide APRITFGGPSDSTGSN): 0

APRITFGGPSDSTGSN R3F (APFITFGGPSDSTGSN)
DMS PSSM value, R (position 3) (peptide APRITFGGPSDSTGSN): 0.003092

APRITFGGPSDSTGSN T13R (APRITFGGPSDSRGSN)
DMS PSSM value, T (position 13) (peptide APRITFGGPSDSTGSN): 0

APRITFGGPSDSTGSN I4G (APRGTFGGPSDSTGSN)
DMS PSSM value, I (position 4) (peptide APRITFGGPSDSTGSN): 0

RNAPRITFGGPSDSTG N2L (RLAPRITFGGPSDSTG)
DMS PSSM value, N (position 2) (peptide RNAPRITFGGPSDSTG): 0

APRITFGGPSDSTGSN S15T (APRITFGGPSDSTGTN)
DMS PSSM value, S (position 15) (peptide APRITFGGPSDSTGSN): 0.008335

APRITFGGPSDSTGSN G7K (APRITFKGPSDSTGSN)
DMS PSSM value, G (position 7) (peptide APRITFGGPSDSTGSN): 0

RNAPRITFGGPSDSTG R5N (RNAPNITFGGPSDSTG)
DMS PSSM value, R (position 5) (peptide RNAPRITFGGPSDSTG): 0

APRITFGGPSDSTGSN A1V (VPRITFGGPSDSTGSN)
DMS PSSM value, A (position 1) (peptide APRITFGGPSDSTGSN): 0.004383

APRITFGGPSDSTGSN P9H (APRITFGGHSDSTGSN)
DMS PSSM value, P (position 9) (peptide APRITFGGPSDSTGSN): 0

RNAPRITFGGPSDSTG T7E (RNAPRIEFGGPSDSTG)
DMS PSSM value, T (position 7) (peptide RNAPRITFGGPSDSTG): 1

RNAPRITFGGPSDSTG T7K (RNAPRIKFGGPSDSTG)
DMS PSSM value, T (position 7) (peptide RNAPRITFGGPSDSTG): 0

APRITFGGPSDSTGSN P2S (ASRITFGGPSDSTGSN)
DMS PSSM value, P (position 2) (peptide APRITFGGPSDSTGSN): 0.0005858

APRITFGGPSDSTGSN F6G (APRITGGGPSDSTGSN)
DMS PSSM value, F (position 6) (peptide APRITFGGPSDSTGSN): 0

APRITFGGPSDSTGSN F6P (APRITPGGPSDSTGSN)
DMS PSSM value, F (position 6) (peptide APRITFGGPSDSTGSN): 0

RNAPRITFGGPSDSTG P11H (RNAPRITFGGHSDSTG)
DMS PSSM value, P (position 11) (peptide RNAPRITFGGPSDSTG): 0

APRITFGGPSDSTGSN S12M (APRITFGGPSDMTGSN)
DMS PSSM value, S (position 12) (peptide APRITFGGPSDSTGSN): 0.01193

APRITFGGPSDSTGSN T13L (APRITFGGPSDSLGSN)
DMS PSSM value, T (position 13) (peptide APRITFGGPSDSTGSN): 0.003677

RNAPRITFGGPSDSTG N2S (RSAPRITFGGPSDSTG)
DMS PSSM value, N (position 2) (peptide RNAPRITFGGPSDSTG): 0.05861

RNAPRITFGGPSDSTG G16S (RNAPRITFGGPSDSTS)
DMS PSSM value, G (position 16) (peptide RNAPRITFGGPSDSTG): 0

RNAPRITFGGPSDSTG S14A (RNAPRITFGGPSDATG)
DMS PSSM value, S (position 14) (peptide RNAPRITFGGPSDSTG): 0

RNAPRITFGGPSDSTG G9Y (RNAPRITFYGPSDSTG)
DMS PSSM value, G (position 9) (peptide RNAPRITFGGPSDSTG): 0

RNAPRITFGGPSDSTG F8Y (RNAPRITYGGPSDSTG)
DMS PSSM value, F (position 8) (peptide RNAPRITFGGPSDSTG): 0

APRITFGGPSDSTGSN G14A (APRITFGGPSDSTASN)
DMS PSSM value, G (position 14) (peptide APRITFGGPSDSTGSN): 0.007074

APRITFGGPSDSTGSN S15K (APRITFGGPSDSTGKN)
DMS PSSM value, S (position 15) (peptide APRITFGGPSDSTGSN): 0.0001786
